In patent publication US20240092757A1, “HETEROARYL DIAMIDE IRE1/XBP1s ACTIVATORS” (Protego Biopharma, Inc., priority 2021, published 2024) one finds activation data, which are given here for 26 molecules.

Counter-ions that a name gives are not always drawn. Where only a bound is given, the exact number is not on record here.

This assay deals with IRE1-XBP1s. Kind of assay: IRE1-XBP1s activation Assay (XBP1-RLuc splicing reporter, HEK293 T-REx cells). As to conditions: compound 10 μM, 18 h, HEK293 T-REx cells stably expressing XBP1-RLuc splicing reporter, relative to thapsigargin (Tg) 500 nM, read-out: Activity (IRE1-XBP1s Activation; luminescence as percentage signal relative to thapsigargin). In kind it is cell-based. As to the method: IRE1-XBP1s activation Assay: HEK293 T-REx cells stably expressing the XBP1-RLuc splicing reporter were treated with an IRE1—XBP1s activator provided herein (10 μM) in the presence or absence of the IRE1 active site inhibitor 4 μ8C (32 μM) for 18 h. Luminescence was shown as the percentage signal relative to thapsigargin (Tg) (500 nM, 18 h).
For the molecule `Cc1ccc(OCCNC(=O)Cn2cc(NC(=O)CCOc3ccccc3)cn2)cc1` [Compound 41], the activation at 10 µM was under 30%.
Consider `Cc1ccc(OCCN(C)C(=O)C(C)n2cc(NC(=O)CCOc3ccccc3)cn2)cc1` (centres unmarked) [Compound 46], for which the activation at 10 µM lay in the range of 30 to 50%.
The figure for `Cc1ccc(OCCN(C)C(=O)Cn2cc(NC(=O)Cc3ccccc3)cn2)cc1` [Compound 26, N-Methyl-2-(4-(2-phenylacetamido)-1H-pyrazol-1-yl)-N-(2-(p-tolyloxy)ethypacetamide hydrochloride] is under 30%; for `COc1ccc(OCCC(=O)Nc2cnn(CC(=O)N(C)CCOc3ccc(C)cc3)c2)cc1` [Compound 10] it is at least 50%; for `Cc1ccc(OCCN(C)C(=O)Cn2cc(NC(=O)CCOc3ccc(N)cc3)cn2)cc1` [Compound 37] it is at least 50%.
As for `Cc1ccc(OCCN(C)C(=O)Cn2cc(NC(=O)CCOc3cccc(F)c3)cn2)cc1` [Compound 36], the figure is at least 50%; as for `CN(CCOc1ccccn1)C(=O)Cn1cc(NC(=O)CCOc2ccccc2)cn1` [Compound 38], under 30%.
For `Cc1ccc(OCCN(C)C(=O)Cn2cc(NC(=O)COc3ccccc3)cn2)cc1` [Compound 44], the activation at 10 µM was in the range of 30 to 50%.
The figure for `Cc1ccc(OCCN(C)C(=O)Cn2cc(NC(=O)CCOc3ccc(Cl)cc3)cn2)cc1` [Compound 45] is 30 to 50%.
Consider `Cc1ccc(OCCN(C)C(=O)Cn2nc(C)c(NC(=O)CCOc3ccccc3)c2C)cc1` [Compound 47], for which the activation at 10 µM was under 30%.
On to `CN(CCc1ccccc1)C(=O)Cn1cc(NC(=O)CCOc2ccccc2)cn1` [Compound 27, N-(1-(2-(methyl(phenethyl)amino)-2-oxoethyl)-1H-pyrazol-4-yl) -3-phenoxypropanamide hydrochloride], for which the activation at 10 µM was under 30%.
The figure for `Cc1ccc(OCCN(C)C(=O)Cn2cc(NC(=O)CCOc3ccc(CO)cc3)cn2)cc1` [Compound 35] is at least 50%; for `CN(CCOc1ccc(C(F)(F)F)cn1)C(=O)Cn1cc(NC(=O)CCOc2ccccc2)cn1` [Compound 39] it is 30 to 50%; for `CN(CCCc1ccc(C(F)(F)F)cc1)C(=O)Cn1cc(NC(=O)CCOc2ccccc2)cn1` [Compound 31] it is under 30%.
As for `Cc1ccc(CN(C)C(=O)Cn2cc(NC(=O)CCOc3ccccc3)cn2)cc1` [Compound 43], the figure is under 30%.
As for `Cc1ccc(OCCN(C)C(=O)Cn2ccc(NC(=O)CCOc3ccccc3)n2)cc1` [Compound 50, N-(1-(2-(methyl(2-(p-tolyloxy)ethyl)amino)-2-oxoethyl)-1H -pyrazol-3-yl)-3-phenoxypropanamide], the figure is under 30%; as for `CN(CCOc1ccc(C2(C(F)(F)F)N=N2)cc1)C(=O)Cn1cc(NC(=O)CCOc2ccccc2)cn1` [Compound 40], under 30%.
For the molecule `COc1ccc(OCCNC(=O)Cn2cc(NC(=O)CCOc3ccccc3)cn2)cc1` [Compound 42], the activation at 10 µM is under 30%.
As for `Cc1ccc(OCCN(C)C(=O)Cn2cnc(NC(=O)CCOc3ccc(F)cc3)c2)cc1` [Compound 16], the figure is at least 50%; as for `CN(C(=O)Cn1cc(NC(=O)CCOc2ccccc2)cn1)c1ccccc1` [Compound 28, N-(1-(2-(Methyl(phenyl)amino)-2-oxoethyl)-1H-pyrazol-4-yl)-3-phenoxypropanamide hydrochloride], under 30%; as for `CN(CCOc1ccccc1)C(=O)Cn1cc(NC(=O)CCOc2ccccc2)cn1` [Compound 29, N-(1-(2-(Methyl(2-phenoxyethyl)amino)-2-oxoethyl)-1H-pyrazol-4-yl)-3-phenoxypropanamide hydrochloride], under 30%.
As for `Cc1ccc(OCCN(C)C(=O)Cn2cc(NC(=O)CCCc3ccccc3)cn2)cc1` [Compound 53], the figure is 30 to 50%; as for `Cc1ccc(OCCN(C)C(=O)Cn2cc(NC(=O)CCc3ccccc3)cn2)cc1` [Compound 25, N-(1-(2-(Methyl(2-(p-tolyloxy)ethyl)amino)-2-oxoethyl)-1H -pyrazol-4-yl)-3-phenylpropanamide hydrochloride], 30 to 50%.
The figure for `COc1ccc(OCCC(=O)Nc2ccn(CC(=O)N(C)CCOc3ccc(C)cc3)n2)cc1` [Compound 51] is under 30%; for `Cc1ccc(OCCN(C)C(=O)Cn2cc(NC(=O)CCOc3ccccc3F)cn2)cc1` [Compound 34] it is at least 50%.
As for `CN(CCOc1ccc(C(F)(F)F)cc1)C(=O)Cn1cc(NC(=O)CCOc2ccccc2)cn1` [Compound 30, N-(1-(2-(Methyl(2-(4-(trifluoromethyl)phenoxy)ethyl)amino)-2-oxoethyl)-1H-pyrazol-4-yl)-3-phenoxypropanamide hydrochloride], the activation at 10 µM was at least 50%.
